Data on 14 compounds can be found in patent publication US7307077B2, “Heterocyclic compound and antitumor agent containing the same as effective ingredient” (Zenyaku Kogyo Kabushiki Kaisha, priority 2001, dated 2007).

The test system of one series is Human colon cancer WiDr. The series is described as follows: Test 2: human colon cancer WiDr subcutaneous tumor in nude mice. The following applies: intraperitoneally 200 mg/kg, once a day, six times a week, for two weeks. The format is in vivo, mutant BALA/c nude mice. How it is done: Human colon cancer WiDr was grown as subcutaneous tumor in mutant BALA/c nude mice. 2-mm-cube tumor fragments were transplanted subcutaneously into left flank of the nude mice. When the tumor reached logarithmic growth phase, mice were divided randomly into test groups consisting five mice per group. The samples prepared by dissolving test compounds in physiological saline solution or suspending them in 1% hydroxypropyl cellulose (HPC), using an agate mortar, were intraperitoneally administered at a rate of 200 mg/kg, once a day and six times a week in total, for two weeks. Major and minor axes of the tumor mass were measured on a daily basis to calculate tumor volume. The tumor volume at each measured day was divided by that at the start day of the sample administration to calculate relative tumor growth rate; and the relative tumor growth rate of the treated groups (T) and that of the control group (C) were used to calculate T/C (%).

Another series deals with MCF-7 cells. Briefly: Test 1: growth inhibition of MCF-7 human breast cancer cells. The format is cell-based. The following applies: Homo sapiens, MCF7, 72 hours culture with sample, read-out: GI50 (50% growth inhibition concentration). How it is done:
Used in the test were MCF-7 cells which were established from human breast cancer and were cultured routinely under the conditions of 37° C. and 5% CO2, in MEM medium supplemented with 10% fetal calf serum, 25 mM of HEPES and 0.1 mg/ml of kanamycin. The MCF-7 cells in a logarithmic growth phase were treated with trypsin/EDTA to prepare single cell suspension adjusted to 4.0×10^4 cells/ml in MEM medium (supplemented with 10% fetal calf serum, 25 mM of HEPES and 0.1 mg/ml of kanamycin). Test compounds were dissolved in DMSO and diluted with RPMI 1640 medium (supplemented with 10% fetal calf serum, 25 mM of HEPES and 0.1 mg/ml of kanamycin) to a concentration of 2.0×10^−4-2.0×10^−9 M.
The cell suspension was filled in a 96-wells microplate at a rate of 0.1 ml per well and was cultured for 24 hours so as to make the cells adhered to the microplate. Then, it was added with 0.1 ml of the sample solution and cultured at 37° C. for 72 hours in 5% CO2.
50% Growth inhibition concentrations (GI50 μM) were calculated from growth inhibitions at various sample concentrations.

One may read the melting point as the temperature of the solid-liquid transition. Regarding `C[C@@H]1OCCN(c2nc(N3CCOCC3)nc(-n3c(C(F)F)nc4ccccc43)n2)[C@H]1C` (relative stereo) [compound 14, 2-(2-difluoromethylbenzimidazol-1-yl)-4-(trans-2,3-dimethylmorpholino)-6-morpholino-1,3,5-triazine], the melting point is 135 to 138 °C. Further, the “judgment (T/C (%) of relative tumor growth rate, last day)” value in the series on Human colon cancer WiDr was “+ (Cases where T/C (%) of the last day was less than 50% and U-assay of Mann-Whitney revealed significant difference with one-sided risk rate of 1% were judged to be effective (+))”. Also, the GI50 with MCF-7 cells is 160 nM.

With `C[C@@H]1OCCN(c2cc(N3CCOCC3)nc(-n3c(N)nc4ccccc43)n2)[C@H]1C.Cl` (relative stereo) [compound 31, 2-(2-aminobenzimidazol-1-yl)-4-(trans-2,3-dimethylmorpholino)-6-morpholinopyrimidine hydrochloride], the melting point was 141 to 145 °C. The “judgment (T/C (%) of relative tumor growth rate, last day)” value in the series with Human colon cancer WiDr was “+ (Cases where T/C (%) of the last day was less than 50% and U-assay of Mann-Whitney revealed significant difference with one-sided risk rate of 1% were judged to be effective (+))”. Besides, the GI50 with MCF-7 cells came out at 240 nM.

For `C[C@@H]1OCCN(c2nc(N3CCOCC3)nc(-n3c(C(F)F)nc4ccc(N)cc43)n2)[C@@H]1C` (relative stereo) [compound 33, 2-(6-amino-2-difluoromethylbenzimidazol-1-yl)-4-(2,3-cis-dimethylmorpholino)-6-morpholino-1,3,5-triazine], the melting point is 220 to 222 °C (dec.). In addition, the “judgment (T/C (%) of relative tumor growth rate, last day)” value in the series on Human colon cancer WiDr is “+ (Cases where T/C (%) of the last day was less than 50% and U-assay of Mann-Whitney revealed significant difference with one-sided risk rate of 1% were judged to be effective (+))”. Further, the GI50 in the series on MCF-7 cells was found to be 80 nM.

As to `CC1CN(c2nc(N3CCOCC3)nc(-n3c(C(F)F)nc4ccccc43)n2)CCO1` (stereo not drawn) [compound 17, 2-(2-difluoromethylbenzimidazol-1-yl)-4-(2-methylmorpholino)-6-morpholino-1,3,5-triazine], the melting point was in the range of 188 to 191 °C. For the same compound, in the series on MCF-7 cells, the GI50 was found to be 120 nM.

Regarding `FC(F)c1nc2ccccc2n1-c1nc(N2CCOCC2)nc(N2CCOCC2)n1` [compound 19, 2-(2-difluoromethylbenzimidazol-1-yl)-4,6-dimorpholino-1,3,5-triazine], the “judgment (T/C (%) of relative tumor growth rate, last day)” value with Human colon cancer WiDr is “+ (Cases where T/C (%) of the last day was less than 50% and U-assay of Mann-Whitney revealed significant difference with one-sided risk rate of 1% were judged to be effective (+))”. Besides, the GI50 in the series with MCF-7 cells is 90 nM.

`C[C@@H]1COC(C)(C)CN1c1nc(N2CCOCC2)nc(-n2c(C(F)F)nc3ccccc32)n1` [compound 20, 2-(2-difluoromethylbenzimidazol-1-yl)-4-morpholino-6-[2,2,5(R)-trimethylmorpholino]-1,3,5-triazine] yielded a melting point of 169 to 171 °C. Besides, the GI50 with MCF-7 cells was determined as 220 nM.

On to `CC(=O)Nc1nc2ccccc2n1-c1nc(N2CCOCC2)nc(N2CCOCC2)n1` [compound 22, 2-(2-acetylaminobenzimidazol-1-yl)-4,6-dimorpholino-1,3,5-triazine], for which the melting point fell in the range of 243 to 245 °C. Also, the “judgment (T/C (%) of relative tumor growth rate, last day)” value with Human colon cancer WiDr is “+ (Cases where T/C (%) of the last day was less than 50% and U-assay of Mann-Whitney revealed significant difference with one-sided risk rate of 1% were judged to be effective (+))”. For the same compound, in the series on MCF-7 cells, the GI50 came to 230 nM.

For the compound `COC(=O)Nc1nc2ccccc2n1-c1nc(N2CCOCC2)nc(N2CCOCC2)n1` [compound 29, 2-(2-methoxycarbonylaminobenzimidazol-1-yl)-4,6-dimorpholino-1,3,5-triazine], the melting point is 206 to 209 °C. Moreover, in the series with MCF-7 cells, the GI50 is 250 nM.

As to `CC1(C)CN(c2nc(N3CCOCC3)nc(-n3c(C(F)F)nc4ccc(N)cc43)n2)CCO1` [compound 32, 2-(6-amino-2-difluoromethylbenzimidazol-1-yl)-4-(2,2-dimethylmorpholino)-6-morpholino-1,3,5-triazine], the melting point is 226 to 227 °C (dec.). The “judgment (T/C (%) of relative tumor growth rate, last day)” value with Human colon cancer WiDr is “+ (Cases where T/C (%) of the last day was less than 50% and U-assay of Mann-Whitney revealed significant difference with one-sided risk rate of 1% were judged to be effective (+))”. In addition, the GI50 with MCF-7 cells amounted to 180 nM.

As to `Nc1cccc2c1nc(C(F)F)n2-c1nc(N2CCOCC2)nc(N2CCOCC2)n1` [compound 34, 2-(4-amino-2-difluoromethylbenzimidazol-1-yl)-4,6-dimorpholino-1,3,5-triazine], the melting point is 214 to 216 °C (dec.). For the same compound, the GI50 in the series with MCF-7 cells is 80 nM.

With `Nc1ccc2nc(C(F)F)n(-c3nc(N4CCOCC4)cc(N4CCOCC4)n3)c2c1` [compound 35, 2-(6-amino-2-difluoromethylbenzimidazol-1-yl)-4,6-dimorpholinopyrimidine], the melting point is 218 to 219 °C (dec.). For the same compound, the GI50 in the series on MCF-7 cells came to 140 nM.

For `CC1(C)CN(c2nc(N3CCOCC3)nc(-n3c(C(F)F)nc4c(O)cccc43)n2)CCO1` [compound 38, 2-(2-difluoromethyl-4-hydroxybenzimidazol-1-yl)-4-(2,2-dimethylmorpholino)-6-morpholino-1,3,5-triazine], the melting point was 228 to 231 °C (dec.). Moreover, the GI50 in the series on MCF-7 cells came out at 30 nM.

Turning to `CC1(C)OCCN1c1nc(N2CCOCC2)nc(-n2c(C(F)F)nc3cc(O)ccc32)n1` [compound 39, 2-(2-difluoromethyl-5-hydroxybenzimidazol-1-yl)-4-(2,2-dimethyloxazolidin-3-yl)-6-morpholino-1,3,5-triazine], the melting point was 239 to 243 °C (dec.). Besides, the GI50 in the series on MCF-7 cells is 60 nM.

On to `Oc1ccc2c(c1)nc(C(F)F)n2-c1nc(N2CCOCC2)cc(N2CCOCC2)n1` [compound 40, 2-(2-difluoromethyl-5-hydroxybenzimidazol-1-yl)-4,6-dimorpholinopyrimidine], for which the melting point was 223 to 226 °C (dec.). Further, the GI50 in the series on MCF-7 cells was 210 nM.
